# Several values for one entry are separate records, joined by “and”; a condition that tells them apart may be missing. Equal entries are not always repeated.
# Test system: BDF1 mice, Adenocarcinoma 755 s.c., tumor weight T/C
# Assay: NCI In Vivo Anticancer Drug Screen. Data for tumor model Adenocarcinoma 755 (subcutaneous) in B6D2F1 (BDF1) mice
# Conditions: endpoint: mean tumor weight, higher = larger tumour
# Description: The antitumor activity of compounds was measured in mice bearing transplantable tumors. Survival or tumor size were measured and the results are expressed as the measurement made in the treated group (T) divided by the measurement made in the vehicle treated control group (C). The tumor model used in this assay is Adenocarcinoma 755 (subcutaneous) in B6D2F1 (BDF1) mice
# [1] = dose: 6.25 mg/kg/injection, schedule: Q01DX011 (ip), vehicle: methylcellulose (MC)
# [2] = dose: 12.5 mg/kg/injection, schedule: Q01DX011 (ip), vehicle: methylcellulose (MC)
# [3] = dose: 25.0 mg/kg/injection, schedule: Q01DX011 (ip), vehicle: methylcellulose (MC)
# [4] = dose: 50.0 mg/kg/injection, schedule: Q01DX011 (ip), vehicle: methylcellulose (MC)
# [5] = dose: 25.0 mg/kg/injection, schedule: Q01DX011 (ip), vehicle: saline
# [6] = dose: 100.0 mg/kg/injection, schedule: Q01DX011 (ip), vehicle: methylcellulose (MC)
# [7] = dose: 200.0 mg/kg/injection, schedule: Q01DX011 (ip), vehicle: methylcellulose (MC)
# [8] = dose: 125.0 mg/kg/injection, schedule: Q01DX011 (ip), vehicle: saline
smiles,measurement,setting,value
CC(CNC(=O)CCOS(C)(=O)=O)NC(=O)CCOS(C)(=O)=O (configuration not stated),T/C,"dose: 14.0 mg/kg/injection, schedule: Q01DX011 (ip), vehicle: carboxymethylcellulose (CMC)",71 % of control
same,T/C,"dose: 28.0 mg/kg/injection, schedule: Q01DX011 (ip), vehicle: carboxymethylcellulose (CMC)",36 % of control and 60 % of control
same,T/C,"dose: 113.0 mg/kg/injection, schedule: Q01DX011 (ip), vehicle: carboxymethylcellulose (CMC)",2 % of control (2×) and 3 % of control
same,T/C,"dose: 225.0 mg/kg/injection, schedule: Q01DX011 (ip), vehicle: carboxymethylcellulose (CMC)",7 % of control
Nc1nc(SC2=NCCN2)c2[nH]cnc2n1,T/C,"dose: 0.75 mg/kg/injection, schedule: Q01DX011 (ip), vehicle: carboxymethylcellulose (CMC)",22 % of control
same,T/C,"dose: 1.5 mg/kg/injection, schedule: Q01DX011 (ip), vehicle: carboxymethylcellulose (CMC)",6 % of control
same,T/C,"dose: 3.0 mg/kg/injection, schedule: Q01DX011 (ip), vehicle: carboxymethylcellulose (CMC)",6 % of control
same,T/C,"dose: 90.0 micrograms/kg/injection, schedule: Q01DX011 (ip), vehicle: carboxymethylcellulose (CMC)",57 % of control
same,T/C,"dose: 187.0 micrograms/kg/injection, schedule: Q01DX011 (ip), vehicle: carboxymethylcellulose (CMC)",88 % of control
same,T/C,"dose: 370.0 micrograms/kg/injection, schedule: Q01DX011 (ip), vehicle: carboxymethylcellulose (CMC)",79 % of control
same,T/C,"dose: 750.0 micrograms/kg/injection, schedule: Q01DX011 (ip), vehicle: carboxymethylcellulose (CMC)",33 % of control
C[C@]12CCC(=O)C=C1CC[C@@H]1[C@@H]2[C@@H](O)C[C@@]2(C)[C@H]1CC[C@]2(O)C(=O)CO,T/C,"dose: 2.5 mg/kg/injection, schedule: Q01DX011 (sc), vehicle: steriod suspending solution",96 % of control
same,T/C,"dose: 4.0 mg/kg/injection, schedule: Q01DX011 (sc), vehicle: steriod suspending solution",49 % of control
same,T/C,"dose: 5.0 mg/kg/injection, schedule: Q01DX011 (sc), vehicle: steriod suspending solution",110 % of control
same,T/C,"dose: 8.7 mg/kg/injection, schedule: Q01DX011 (sc), vehicle: steriod suspending solution",49 % of control
same,T/C,"dose: 10.0 mg/kg/injection, schedule: Q01DX011 (sc), vehicle: steriod suspending solution",56 % of control
same,T/C,"dose: 17.5 mg/kg/injection, schedule: Q01DX011 (sc), vehicle: steriod suspending solution",32 % of control
same,T/C,"dose: 20.0 mg/kg/injection, schedule: Q01DX011 (sc), vehicle: steriod suspending solution",32 % of control and 34 % of control
same,T/C,"dose: 35.0 mg/kg/injection, schedule: Q01DX011 (sc), vehicle: steriod suspending solution",24 % of control
same,T/C,"dose: 40.0 mg/kg/injection, schedule: Q01DX011 (sc), vehicle: steriod suspending solution",11 % of control
same,T/C,"dose: 70.0 mg/kg/injection, schedule: Q01DX011 (sc), vehicle: steriod suspending solution",8 % of control
same,T/C,"dose: 80.0 mg/kg/injection, schedule: Q01DX011 (sc), vehicle: steriod suspending solution",13 % of control
same,T/C,"dose: 140.0 mg/kg/injection, schedule: Q01DX011 (sc), vehicle: steriod suspending solution",1 % of control
CC(C)Cn1cnc2c(SCc3cccc(F)c3)nc(N)nc21,T/C,[1],75 % of control
same,T/C,[2],55 % of control
same,T/C,[3],15 % of control
same,T/C,[4],1 % of control
Nc1ncnc2c1ncn2CCN(CCO)CCO,T/C,[5],172 % of control
same,T/C,"dose: 225.0 mg/kg/injection, schedule: Q01DX011 (ip), vehicle: saline",158 % of control
CCCNc1ncnc2c1cnn2C,T/C,"dose: 3.12 mg/kg/injection, schedule: Q01DX011 (ip), vehicle: methylcellulose (MC)",84 % of control
same,T/C,"dose: 3.12 mg/kg/injection, schedule: Q01DX011 (ip), vehicle: saline",101 % of control
same,T/C,[1],80 % of control
same,T/C,"dose: 6.25 mg/kg/injection, schedule: Q01DX011 (ip), vehicle: saline",86 % of control
same,T/C,[2],32 % of control
same,T/C,"dose: 12.5 mg/kg/injection, schedule: Q01DX011 (ip), vehicle: saline",19 % of control
same,T/C,[5],8 % of control
CC(C)Sc1nc(N)nc2c1ncn2C1OC(CO)C(O)C1O (configuration not stated),T/C,"dose: 0.38 mg/kg/injection, schedule: Q01DX011 (ip), vehicle: methylcellulose (MC)",48 % of control
same,T/C,"dose: 0.75 mg/kg/injection, schedule: Q01DX011 (ip), vehicle: methylcellulose (MC)",60 % of control
same,T/C,"dose: 1.5 mg/kg/injection, schedule: Q01DX011 (ip), vehicle: methylcellulose (MC)",40 % of control
same,T/C,"dose: 3.0 mg/kg/injection, schedule: Q01DX011 (ip), vehicle: methylcellulose (MC)",36 % of control
same,T/C,"dose: 3.1 mg/kg/injection, schedule: Q01DX011 (ip), vehicle: methylcellulose (MC)",3 % of control
Nc1nc(NC2CCCCC2)cc(=O)[nH]1,T/C,[4],56 % of control
same,T/C,[6],55 % of control
same,T/C,[7],51 % of control
same,T/C,"dose: 400.0 mg/kg/injection, schedule: Q01DX011 (ip), vehicle: methylcellulose (MC)",33 % of control
CCCCn1cnc2c(SC)ncnc21,T/C,"dose: 5.0 mg/kg/injection, schedule: Q01DX011 (ip), vehicle: saline",89 % of control
same,T/C,"dose: 7.5 mg/kg/injection, schedule: Q01DX011 (ip), vehicle: saline",119 % of control
same,T/C,"dose: 10.0 mg/kg/injection, schedule: Q01DX011 (ip), vehicle: saline",65 % of control
same,T/C,"dose: 20.0 mg/kg/injection, schedule: Q01DX011 (ip), vehicle: saline",20 % of control
same,T/C,"dose: 30.0 mg/kg/injection, schedule: Q01DX011 (ip), vehicle: saline",26 % of control
same,T/C,"dose: 40.0 mg/kg/injection, schedule: Q01DX011 (ip), vehicle: saline",14 % of control
same,T/C,"dose: 50.0 mg/kg/injection, schedule: Q01DX011 (ip), vehicle: saline",10 % of control
same,T/C,"dose: 53.0 mg/kg/injection, schedule: Q01DX011 (ip), vehicle: saline",5 % of control
same,T/C,"dose: 84.0 mg/kg/injection, schedule: Q01DX011 (ip), vehicle: saline",5 % of control
same,T/C,[8],4 % of control
same,T/C,"dose: 187.0 mg/kg/injection, schedule: Q01DX011 (ip), vehicle: saline",1 % of control
NC(N)=NC(CC(=O)O)c1ccccc1 (configuration not stated),T/C,"dose: 15.0 mg/kg/injection, schedule: Q01DX011 (ip), vehicle: saline",87 % of control
same,T/C,"dose: 31.0 mg/kg/injection, schedule: Q01DX011 (ip), vehicle: saline",99 % of control
same,T/C,"dose: 62.0 mg/kg/injection, schedule: Q01DX011 (ip), vehicle: saline",87 % of control
same,T/C,[8],107 % of control
same,T/C,"dose: 250.0 mg/kg/injection, schedule: Q01DX011 (ip), vehicle: saline",91 % of control
O=C(CCBr)NCCCCCCNC(=O)CCBr,T/C,"dose: 56.0 mg/kg/injection, schedule: Q01DX011 (ip), vehicle: methylcellulose (MC)",114 % of control
same,T/C,"dose: 113.0 mg/kg/injection, schedule: Q01DX011 (ip), vehicle: methylcellulose (MC)",67 % of control
same,T/C,"dose: 225.0 mg/kg/injection, schedule: Q01DX011 (ip), vehicle: methylcellulose (MC)",114 % of control
CCCCSc1nc(N)nc2c1ncn2CC(C)CC (configuration not stated),T/C,"dose: 37.5 mg/kg/injection, schedule: Q01DX011 (ip), vehicle: carboxymethylcellulose (CMC)",30 % of control and 47 % of control
same,T/C,"dose: 150.0 mg/kg/injection, schedule: Q01DX011 (ip), vehicle: carboxymethylcellulose (CMC)",2 % of control and 18 % of control
same,T/C,"dose: 300.0 mg/kg/injection, schedule: Q01DX011 (ip), vehicle: carboxymethylcellulose (CMC)",2 % of control
CC(=O)OCC1OC(n2cnc3c(=O)[nH]cnc32)CC1OC(C)=O (configuration not stated),T/C,"dose: 60.0 mg/kg/injection, schedule: Q01DX011 (ip), vehicle: carboxymethylcellulose (CMC)",75 % of control and 78 % of control
same,T/C,"dose: 120.0 mg/kg/injection, schedule: Q01DX011 (ip), vehicle: carboxymethylcellulose (CMC)",86 % of control
Fc1ccccc1CSc1ncnc2c1ncn2C1CCCO1 (configuration not stated),T/C,"dose: 3.4 mg/kg/injection, schedule: Q01DX011 (ip), vehicle: methylcellulose (MC)",82 % of control
same,T/C,"dose: 6.75 mg/kg/injection, schedule: Q01DX011 (ip), vehicle: methylcellulose (MC)",96 % of control
same,T/C,[2],26 % of control
same,T/C,[3],1 % of control and 15 % of control
same,T/C,[4],1 % of control
CCC(C)Cn1cnc2c(SCc3ccccn3)nc(N)nc21 (configuration not stated),T/C,"dose: 16.2 mg/kg/injection, schedule: Q01DX011 (ip), vehicle: methylcellulose (MC)",37 % of control
same,T/C,"dose: 32.5 mg/kg/injection, schedule: Q01DX011 (ip), vehicle: methylcellulose (MC)",32 % of control
same,T/C,"dose: 65.0 mg/kg/injection, schedule: Q01DX011 (ip), vehicle: methylcellulose (MC)",23 % of control and 29 % of control
CCCCCCCCOc1nc(N)nc2n[nH]nc12,T/C,"dose: 50.0 mg/kg/injection, schedule: Q01DX011 (ip), vehicle: carboxymethylcellulose (CMC)",112 % of control
same,T/C,"dose: 100.0 mg/kg/injection, schedule: Q01DX011 (ip), vehicle: carboxymethylcellulose (CMC)",69 % of control
same,T/C,"dose: 200.0 mg/kg/injection, schedule: Q01DX011 (ip), vehicle: carboxymethylcellulose (CMC)",57 % of control
Cc1ccc(N(O)C(=O)Nc2ccccc2)cc1,T/C,[6],95 % of control
same,T/C,[7],80 % of control

# From PubChem BioAssay AID180 (DTP/NCI, 2004)
